{"source": "patent US5079157A", "about": "“Novel choline oxidase and method for producing the same” (priority 1988, dated 1992)", "key": {"[1]": {"system": "choline oxidase", "assay_type": "biochemical", "description": "(§1) Enzymatic activity (U/ml)=ΔA/min.×10.17×dilution ratio\nVarious substances were added to the reaction mixture to be used for the determination of enzymatic activity as described in the above (2) and the inhibitory effects were examined."}, "[2]": {"system": "choline oxidase", "assay": "Substrate specificity of choline oxidase (authentic sample of Example 1)", "assay_type": "biochemical, Streptomyces thermoluteus subsp. fuscus C-19", "conditions": "substrate used in place of choline chloride; relative to choline; enzyme of Example 1; Tris-HCl pH 8.0, 37° C", "description": "as §1\nAccording to the above determination method of enzymatic activity, various substrates shown in Table 2 were used in place of choline chloride in the reaction mixture, their relative activities to choline were determined. As the enzyme, the authentic sample obtained in Example 1 hereinafter was employed."}, "[3]": {"system": "choline oxidase (authentic sample T)", "conditions": "authentic sample T (Example 10)", "protocol": "(§2) A peroxidase (obtained from horse radish, 100 units/mg, Type I, Sigma Chemical Co., U.S.A.) is dissolved in the above mixture to obtain a reaction mixture. The reaction mixture (3.0 ml) is placed in a cuvette (d=1.0 cm) and subjected to pre-heating at 37° C. for 5 minutes. Then, the changes of absorbance at 500 nm at 37° C. are recorded by an autographic recording spectrophotometer (UV-260 Type, Shimadzu Seisakusho, Ltd.) and the changes of absorbance per minute (ΔA/min.) from the initial straight line portion are determined. The enzymatic activity is calculated by the following formula:"}, "[4]": {"biological_target": "T1, choline oxidase (authentic sample S) (Saccharopolyspora hirsuta, UniProt A0A5M7BLR6)", "T1 sequence (A0A5M7BLR6 1-515)": "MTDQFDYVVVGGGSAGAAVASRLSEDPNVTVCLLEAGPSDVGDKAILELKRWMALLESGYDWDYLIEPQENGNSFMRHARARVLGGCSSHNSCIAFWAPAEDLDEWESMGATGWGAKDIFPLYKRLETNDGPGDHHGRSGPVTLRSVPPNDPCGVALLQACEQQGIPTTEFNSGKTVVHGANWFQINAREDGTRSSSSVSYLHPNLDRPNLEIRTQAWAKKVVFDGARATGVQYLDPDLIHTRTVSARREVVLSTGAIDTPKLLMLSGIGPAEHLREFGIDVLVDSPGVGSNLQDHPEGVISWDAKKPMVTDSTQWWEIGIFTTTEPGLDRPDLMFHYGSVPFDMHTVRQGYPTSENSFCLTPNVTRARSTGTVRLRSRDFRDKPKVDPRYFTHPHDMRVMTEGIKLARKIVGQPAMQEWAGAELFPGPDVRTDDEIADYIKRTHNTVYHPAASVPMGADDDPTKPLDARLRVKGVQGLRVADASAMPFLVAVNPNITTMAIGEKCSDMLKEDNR", "conditions": "authentic sample S (Example 11)", "protocol": "as §2"}, "[5]": {"conditions": "additive 5 mM, without addition = 100"}, "[6]": {"conditions": "additive 1.0 mM, without addition = 100"}}, "note": "Where two headings read alike, the source gives them in different places."}
{"molecule": "[Ba+2].[Cl-].[Cl-]", "note": "[BaCl2]", "values": [{"measurement": "Relative Activity (%)", "setting": "[1]; [5]", "result": 100, "unit": "%"}]}
{"molecule": "C[N+](C)(C)CC=O", "note": "[Betaine aldehyde]", "values": [{"measurement": "Relative Activity (%)", "setting": "[2]", "result": 41.9, "unit": "%"}, {"measurement": "reactivity of the enzyme to the substrate", "setting": "[3]", "result": "showed reactivity"}, {"measurement": "reactivity of the enzyme to the substrate", "setting": "[4]", "result": "showed reactivity"}]}
{"molecule": "[Ca+2].[Cl-].[Cl-]", "note": "[CaCl2]", "values": [{"measurement": "Relative Activity (%)", "setting": "[1]; [5]", "result": 100, "unit": "%"}]}
{"molecule": "[Cl-].[Cl-].[Co+2]", "note": "[CoCl2]", "values": [{"measurement": "Relative Activity (%)", "setting": "[1]; [5]", "result": 36.9, "unit": "%"}]}
{"molecule": "OCCNCCO", "note": "[Diethanolamine]", "values": [{"measurement": "Relative Activity (%)", "setting": "[2]", "result": 0, "unit": "%"}]}
{"molecule": "[Cl][Hg][Cl]", "note": "[HgCl2]", "values": [{"measurement": "Relative Activity (%)", "setting": "[1]; additive 0.05 mM, without addition = 100", "result": 83.3, "unit": "%"}, {"measurement": "Relative Activity (%)", "setting": "[1]; additive 0.5 mM, without addition = 100", "result": 60.1, "unit": "%"}, {"measurement": "Relative Activity (%)", "setting": "[1]; [6]", "result": 50.0, "unit": "%"}]}
{"molecule": "[Cl-].[K+]", "note": "[KCl]", "values": [{"measurement": "Relative Activity (%)", "setting": "[1]; [5]", "result": 98.0, "unit": "%"}]}
{"molecule": "[Cl-].[Li+]", "note": "[LiCl]", "values": [{"measurement": "Relative Activity (%)", "setting": "[1]; [5]", "result": 100, "unit": "%"}]}
{"molecule": "[Cl-].[Cl-].[Mg+2]", "note": "[MgCl2]", "values": [{"measurement": "Relative Activity (%)", "setting": "[1]; [5]", "result": 93.8, "unit": "%"}]}
{"molecule": "[Cl][Mn][Cl]", "note": "[MnCl2]", "values": [{"measurement": "Relative Activity (%)", "setting": "[1]; [5]", "result": 100, "unit": "%"}]}
{"molecule": "[Cl][Mo]([Cl])([Cl])([Cl])[Cl]", "note": "[MoCl5]", "values": [{"measurement": "Relative Activity (%)", "setting": "[1]; [6]", "result": 18.1, "unit": "%"}]}
{"molecule": "NCCO", "note": "[Monoethanolamine]", "values": [{"measurement": "Relative Activity (%)", "setting": "[2]", "result": 0, "unit": "%"}]}
{"molecule": "CNCCO", "note": "[N-methylaminoethanol]", "values": [{"measurement": "Relative Activity (%)", "setting": "[2]", "result": 0, "unit": "%"}]}
{"molecule": "Cl.N", "note": "[NH4 Cl]", "values": [{"measurement": "Relative Activity (%)", "setting": "[1]; [5]", "result": 100, "unit": "%"}]}
{"molecule": "[Cl-].[Na+]", "note": "[NaCl]", "values": [{"measurement": "Relative Activity (%)", "setting": "[1]", "result": 100, "unit": "%"}]}
{"molecule": "[Cl-].[Cl-].[Zn+2]", "note": "[ZnCl2]", "values": [{"measurement": "Relative Activity (%)", "setting": "[1]; [5]", "result": 82.9, "unit": "%"}]}
